# Laboratory results as given in ChEMBL document CHEMBL1201862, “PubChem BioAssay data set” (2004).
#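 Briefly, cells in 96-well plates were exposed to five compound concentrations for 48 h, and endpoints were estimated by linear interpolation. Abbreviation: GI50, concentration required for 50% inhibition of growth.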 Active and inactive are the calls of the source. No stated cut-off is given here; in the data, active = GI50 up to about 1.1 µM and inactive = higher.
# Experiments:
# Assay in all cases: DTP human tumour cell line panel, 48 h
# [1] = test system: 786-0
# [2] = test system: A549
# [3] = test system: ACHN
# [4] = test system: CAKI-1
# [5] = test system: CCRF-CEM
# [6] = test system: COLO 205
# [7] = test system: DLD-1
# [8] = test system: DMS-114
# [9] = test system: DMS-273
# [10] = test system: EKVX
# [11] = test system: HCC 2998
# [12] = test system: HCT-116
# [13] = test system: HCT-15
# [14] = test system: HL-60
# [15] = test system: HOP-62
# [16] = test system: HOP-92
# [17] = test system: HT-29
# [18] = test system: IGROV-1
# [19] = test system: K562
# [20] = test system: KM-20L2
# [21] = test system: KM12
# [22] = test system: LOX IMVI
# [23] = test system: LXFL 529
# [24] = test system: M14
# [25] = test system: M19-MEL
# [26] = test system: Malme-3M
# [27] = test system: NCI-H226
# [28] = test system: NCI-H23
# [29] = test system: NCI-H460
# [30] = test system: NCI-H522
# [31] = test system: OVCAR-3
# [32] = test system: OVCAR-4
# [33] = test system: OVCAR-5
# [34] = test system: OVCAR-8
# [35] = test system: RPMI-8226
# [36] = test system: RXF 393
# [37] = test system: SF-268
# [38] = test system: SF-295
# [39] = test system: SF-539
# [40] = test system: SK-MEL-28
# [41] = test system: SK-MEL-2
# [42] = test system: SK-MEL-5
# [43] = test system: SK-OV-3
# [44] = test system: SN12C
# [45] = test system: SNB-19
# [46] = test system: SNB-75
# [47] = test system: SNB-78
# [48] = test system: SR
# [49] = test system: SW-620
# [50] = test system: TK-10
# [51] = test system: U-251
# [52] = test system: UACC-62
# [53] = test system: UO-31
# [54] = test system: XF498
# [55] = test system: A498
# [56] = test system: HOP-18
# [57] = test system: MOLT-4
# [58] = test system: UACC-257
structure (smiles),measurement,setting,value
O=C1Nc2ccccc2Nc2nc3cccccc-3c21,GI50,[1],> 100 µM (inactive)
same,GI50,[2],> 100 µM (inactive)
same,GI50,[3],> 100 µM (inactive)
same,GI50,[4],> 100 µM (inactive)
same,GI50,[5],> 100 µM (inactive)
same,GI50,[6],> 100 µM (inactive)
same,GI50,[7],> 100 µM (inactive)
same,GI50,[8],> 100 µM (inactive)
same,GI50,[9],> 100 µM (inactive)
same,GI50,[10],> 100 µM (inactive)
same,GI50,[11],> 100 µM (inactive)
same,GI50,[12],> 100 µM (inactive)
same,GI50,[13],> 100 µM
same,GI50,[14],> 100 µM (inactive)
same,GI50,[15],> 100 µM (inactive)
same,GI50,[16],> 100 µM (inactive)
same,GI50,[17],> 100 µM (inactive)
same,GI50,[18],> 100 µM (inactive)
same,GI50,[19],> 100 µM (inactive)
same,GI50,[20],> 100 µM (inactive)
same,GI50,[21],> 100 µM (inactive)
same,GI50,[22],> 100 µM (inactive)
same,GI50,[23],> 100 µM (inactive)
same,GI50,[24],> 100 µM (inactive)
same,GI50,[25],> 100 µM (inactive)
same,GI50,[26],> 100 µM (inactive)
same,GI50,[27],> 100 µM (inactive)
same,GI50,[28],> 100 µM (inactive)
same,GI50,[29],> 100 µM (inactive)
same,GI50,[30],> 100 µM (inactive)
same,GI50,[31],> 100 µM (inactive)
same,GI50,[32],> 100 µM (inactive)
same,GI50,[33],> 100 µM (inactive)
same,GI50,[34],> 100 µM (inactive)
same,GI50,[35],> 100 µM (inactive)
same,GI50,[36],> 100 µM (inactive)
same,GI50,[37],> 100 µM (inactive)
same,GI50,[38],> 100 µM (inactive)
same,GI50,[39],> 100 µM (inactive)
same,GI50,[40],> 100 µM (inactive)
same,GI50,[41],> 100 µM (inactive)
same,GI50,[42],> 100 µM (inactive)
same,GI50,[43],> 100 µM (inactive)
same,GI50,[44],> 100 µM (inactive)
same,GI50,[45],> 100 µM (inactive)
same,GI50,[46],> 100 µM (inactive)
same,GI50,[47],> 100 µM (inactive)
same,GI50,[48],> 100 µM (inactive)
same,GI50,[49],> 100 µM (inactive)
same,GI50,[50],> 100 µM (inactive)
same,GI50,[51],> 100 µM (inactive)
same,GI50,[52],> 100 µM (inactive)
same,GI50,[53],> 100 µM (inactive)
same,GI50,[54],> 100 µM (inactive)
CCOC(=O)CC1(c2cccc3ccccc23)OC(=O)c2ccccc21 (stereo not given),GI50,[55],23.6 µM (inactive)
same,GI50,[2],41 µM (inactive)
same,GI50,[3],30.3 µM (inactive)
same,GI50,[4],57.7 µM (inactive)
same,GI50,[5],43.1 µM (inactive)
same,GI50,[6],30.4 µM (inactive)
same,GI50,[7],8.69 µM (inactive)
same,GI50,[8],30.6 µM (inactive)
same,GI50,[9],41.7 µM (inactive)
same,GI50,[10],63.2 µM (inactive)
same,GI50,[11],62.5 µM (inactive)
same,GI50,[13],35.5 µM
same,GI50,[14],22.1 µM (inactive)
same,GI50,[56],40.4 µM (inactive)
same,GI50,[17],49.8 µM (inactive)
same,GI50,[18],> 100 µM (inactive)
same,GI50,[19],37.9 µM (inactive)
same,GI50,[20],45 µM (inactive)
same,GI50,[21],40.5 µM (inactive)
same,GI50,[22],60.4 µM (inactive)
same,GI50,[23],51.2 µM (inactive)
same,GI50,[25],48.5 µM (inactive)
same,GI50,[57],25.4 µM (inactive)
same,GI50,[26],27.5 µM (inactive)
same,GI50,[27],67 µM (inactive)
same,GI50,[28],20.3 µM (inactive)
same,GI50,[29],37.6 µM (inactive)
same,GI50,[30],24.1 µM (inactive)
same,GI50,[31],33.6 µM (inactive)
same,GI50,[32],40.4 µM (inactive)
same,GI50,[33],> 100 µM (inactive)
same,GI50,[34],45.5 µM (inactive)
same,GI50,[35],23.7 µM (inactive)
same,GI50,[36],16.3 µM (inactive)
same,GI50,[37],32.7 µM (inactive)
same,GI50,[38],34.4 µM (inactive)
same,GI50,[40],39.9 µM (inactive)
same,GI50,[41],32.1 µM (inactive)
same,GI50,[42],21.3 µM (inactive)
same,GI50,[43],> 100 µM (inactive)
same,GI50,[44],43.1 µM (inactive)
same,GI50,[45],50.9 µM (inactive)
same,GI50,[46],14 µM (inactive)
same,GI50,[47],66.4 µM (inactive)
same,GI50,[49],79.4 µM (inactive)
same,GI50,[50],80 µM (inactive)
same,GI50,[51],68.4 µM (inactive)
same,GI50,[58],56.4 µM (inactive)
same,GI50,[52],57.7 µM (inactive)
same,GI50,[53],23.9 µM (inactive)
CC(=O)OC1=C2CC[C@@H]3C(CC[C@@]4(C)C3CC[C@@H]4OC(C)=O)[C@@]2(C)CC(C#N)C1=O (stereo not given in full),GI50,[1],10.8 µM (inactive)
same,GI50,[55],6.01 µM (inactive)
same,GI50,[2],30.8 µM (inactive)
same,GI50,[3],20.8 µM (inactive)
same,GI50,[5],20.2 µM (inactive)
same,GI50,[6],20.8 µM (inactive)
same,GI50,[7],9.82 µM (inactive)
same,GI50,[8],17.8 µM (inactive)
same,GI50,[9],20.9 µM (inactive)
same,GI50,[10],33 µM (inactive)
same,GI50,[11],13.3 µM (inactive)
same,GI50,[12],27.6 µM (inactive)
same,GI50,[13],28.9 µM
same,GI50,[14],16 µM (inactive)
same,GI50,[15],8.67 µM (inactive)
same,GI50,[16],15.1 µM (inactive)
same,GI50,[17],26.5 µM (inactive)
same,GI50,[18],19.2 µM (inactive)
same,GI50,[19],22.6 µM (inactive)
same,GI50,[20],27.7 µM (inactive)
same,GI50,[21],30.3 µM (inactive)
same,GI50,[22],16.8 µM (inactive)
same,GI50,[23],30 µM (inactive)
same,GI50,[24],25.1 µM (inactive)
same,GI50,[57],23.4 µM (inactive)
same,GI50,[26],5.58 µM (inactive)
same,GI50,[27],34.7 µM (inactive)
same,GI50,[28],27.9 µM (inactive)
same,GI50,[29],24.4 µM (inactive)
same,GI50,[31],21.2 µM (inactive)
same,GI50,[32],24.4 µM (inactive)
same,GI50,[33],26.4 µM (inactive)
same,GI50,[34],30.9 µM (inactive)
same,GI50,[35],12 µM (inactive)
same,GI50,[36],23.4 µM (inactive)
same,GI50,[37],31 µM (inactive)
same,GI50,[38],32.8 µM (inactive)
same,GI50,[39],30.3 µM (inactive)
same,GI50,[40],30.3 µM (inactive)
same,GI50,[41],4.32 µM (inactive)
same,GI50,[42],20.2 µM (inactive)
same,GI50,[43],18.3 µM (inactive)
same,GI50,[44],28.6 µM (inactive)
same,GI50,[45],25.2 µM (inactive)
same,GI50,[46],14.5 µM (inactive)
same,GI50,[47],26.8 µM (inactive)
same,GI50,[49],35.7 µM (inactive)
same,GI50,[50],23.6 µM (inactive)
same,GI50,[51],27.4 µM (inactive)
same,GI50,[58],29.3 µM (inactive)
same,GI50,[52],12.8 µM (inactive)
same,GI50,[53],7.69 µM (inactive)
same,GI50,[54],18.6 µM (inactive)
O=S(O)CCCCCSSc1ccccc1,GI50,[55],48.5 µM (inactive)
same,GI50,[3],85.7 µM (inactive)
same,GI50,[5],4.5 µM (inactive)
same,GI50,[7],54.8 µM (inactive)
same,GI50,[8],23.6 µM (inactive)
same,GI50,[10],> 100 µM (inactive)
same,GI50,[11],> 100 µM (inactive)
same,GI50,[12],24.3 µM (inactive)
same,GI50,[14],14.1 µM (inactive)
same,GI50,[15],> 100 µM (inactive)
same,GI50,[17],84.9 µM (inactive)
same,GI50,[19],15.3 µM (inactive)
same,GI50,[21],53.3 µM (inactive)
same,GI50,[22],20 µM (inactive)
same,GI50,[23],17 µM (inactive)
same,GI50,[24],43.8 µM (inactive)
same,GI50,[25],50 µM (inactive)
same,GI50,[57],8.13 µM (inactive)
same,GI50,[26],10 µM (inactive)
same,GI50,[28],52.5 µM (inactive)
same,GI50,[29],68.9 µM (inactive)
same,GI50,[30],15.3 µM (inactive)
same,GI50,[31],43.7 µM (inactive)
same,GI50,[32],> 100 µM (inactive)
same,GI50,[33],> 100 µM (inactive)
same,GI50,[35],18.5 µM (inactive)
same,GI50,[36],18.3 µM (inactive)
same,GI50,[37],15.8 µM (inactive)
same,GI50,[39],22.8 µM (inactive)
same,GI50,[40],61.1 µM (inactive)
same,GI50,[41],18.2 µM (inactive)
same,GI50,[43],> 100 µM (inactive)
same,GI50,[44],27.8 µM (inactive)
same,GI50,[45],> 100 µM (inactive)
same,GI50,[46],37.3 µM (inactive)
same,GI50,[47],41 µM (inactive)
same,GI50,[48],8.02 µM (inactive)
same,GI50,[50],84.9 µM (inactive)
same,GI50,[51],21.3 µM (inactive)
same,GI50,[58],39 µM (inactive)
same,GI50,[52],28.3 µM (inactive)
same,GI50,[53],31.6 µM (inactive)
same,GI50,[54],24.2 µM (inactive)
